# Where a name gives a salt, the structure may show the parent alone. Read-outs that look alike come from different tables or passages of the source.
# How the values were obtained:
# [1] = biological target: T1, HCV NS3 protease (full length NS34a) (Hepatitis C virus genotype 1b, UniProt P26663); assay: HCV NS3 protease assay (FRET, full length NS34a); type: biochemical
# T1 construct: The protease activity of the full length NS34a was measured using a FRET-based assay; made in house
# How it was run: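 Full-length NS34a incubated with compound and an NS4AB cleavage-site FRET peptide (QXL520 quencher, 5-FAMsp fluorophore) in 50 mM Tris pH8, 20 mM DTT, 1% CHAPS, 10% glycerol, 5% DMSO. Fluorescence followed for 30 minutes at room temperature; IC50 from initial rates of replicate progress curves.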
# [2] = system: HCV subgenomic replicon in Huh-7 cells; assay: Replicon assay, EC50 luciferase readout; type: cell-based, hepatitis C virus (HCV); details: Hepatitis C virus, Huh-7, 72 h, single value, or second value of a pair x:y
# Experimental: The activities of compounds of the invention against HCV in a cellular environment were analysed using a replicon assay as described below.
# Thus, Huh-7 cells persistently infected with an HCV-RNA construct (Bartenschlager, R. Hepatitis C replicons: potential role for drug development. Nature Rev. Drug Discov. 1, 911-916 (2002)) comprising: 5′ and 3′ non-translated regions (NTR); the non-structural genes NS3 to NS5b; as well as the G418 drug resistance gene, neomycin, (for selection of cells carrying HCV replicon RNA) fused to the firefly Luciferase reporter gene (pFK13889luc-ubi-neoNS3-3′ET), were used to determine the cell based antiviral activity of compounds using luciferase activity as an indirect readout of HCV RNA load. In this assay […] huh-7 cells persistently infected with the HCV subgenomic replicon construct above were platedwell in a 96 well tissue culture plate. The cells were allowed to attach overnight in DMEM medium supplemented with 10% FBS 1% NEAA, and 250 μgml gentamicin. The following day the medium was replaced with 200 μlwell of fresh medium as described above lacking gentamicin. […] Plates were then incubated at 37° C. in an atmosphere of 5% CO2 and air for 72 h. […] The plate was then read at 535 nm (excitation) and 590 nm (emission) on a SpectraMax Gemini reader (Molecular Devices) to determine the number of viable cells by measuring the conversion of rezasurin (Alamar blue) to resorufin in response to mitochondrial activity. In order to determine the antiviral effect of these compounds EC50 values were determined by measuring the luciferase activity of the cells. Alamar blue solution was removed from the wells and replaced with 100 μlwell of medium along with 100 μlwell of Bright-Glo reagent and incubated at room temperature for 5 minutes before transferring 100 μlwell to a white bottom 96 well plate to read in a luminometer as described in the Bright-Glo Luciferase Assay System protocol (promega).
# [3] = protease activity of full length NS34a, FRET peptide substrate, read-out: Activity IC50
# [4] = Huh-7 replicon cells, 72 h, read-out: Activity EC50 (μM) (EC50 luciferase readout)
# [5] = IC50 values of 10-150 μM against the protease activity of the full length NS34a, or at least 40% inhibition of protease activity at a concentration of 100 μM
# T1 sequence (P26663 1658-1711): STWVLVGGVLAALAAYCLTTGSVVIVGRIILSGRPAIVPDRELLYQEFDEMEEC
# T1 sequence (P26663 1027-1657): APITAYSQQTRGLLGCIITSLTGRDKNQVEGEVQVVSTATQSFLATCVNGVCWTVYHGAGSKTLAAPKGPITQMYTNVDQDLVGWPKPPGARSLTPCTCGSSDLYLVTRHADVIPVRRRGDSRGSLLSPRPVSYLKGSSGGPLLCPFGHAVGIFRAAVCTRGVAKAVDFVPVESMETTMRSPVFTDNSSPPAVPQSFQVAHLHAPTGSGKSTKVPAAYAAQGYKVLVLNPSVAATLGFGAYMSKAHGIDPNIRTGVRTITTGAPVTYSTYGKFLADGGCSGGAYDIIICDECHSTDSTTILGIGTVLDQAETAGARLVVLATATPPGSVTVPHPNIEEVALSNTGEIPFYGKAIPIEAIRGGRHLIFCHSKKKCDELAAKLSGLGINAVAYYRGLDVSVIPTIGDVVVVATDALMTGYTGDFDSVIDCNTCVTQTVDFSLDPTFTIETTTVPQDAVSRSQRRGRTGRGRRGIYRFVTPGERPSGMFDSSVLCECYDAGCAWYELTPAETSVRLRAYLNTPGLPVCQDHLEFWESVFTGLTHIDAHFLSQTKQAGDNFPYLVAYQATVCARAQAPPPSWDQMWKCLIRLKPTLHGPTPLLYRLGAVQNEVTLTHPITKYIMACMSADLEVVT
SMILES,"IC50 [1, 3] [nM]","EC50 [2, 4] [µM]","IC50 [1, 5] [nM]","EC50 ([2]; read-out: Activity EC50 (μM) (EC50 luciferase readout), Huh-7 replicon cells, 72 h) [µM]"
Cc1cc(Oc2c(F)ccc(CN[C@H]3CC[C@H](N)CC3)c2F)ccc1N [Example 287],440,6.5,–,–
CCC[C@@H](N[C@@H](C)CC(N)=O)c1ccc(Cl)c(Oc2ccccc2)c1F [Example 125],230,0.38,–,–
CC[C@@H](N[C@@H](C)CC(N)=O)c1ccc(Cl)c(Oc2ccc(N)c(C(F)(F)F)c2)c1F [Example 260],170,0.043,–,–
CC[C@@H](N)c1ccc(Cl)c(Oc2cccc(CO)c2)c1F [Example 115],1800,> 10,–,–
"N[C@@H](c1ccc(F)c(Oc2ccccc2)c1F)[C@H]1CCOC1 (relative stereo) [Example 62, C-(2,4-Difluoro-3-phenoxy-phenyl)—C-(tetrahydro-furan-3-yl)-methylamine.hydrochloride]",7200,> 30,–,–
"CC[C@@H](N[C@@H](C)CC(N)=O)c1ccc(Cl)c(Oc2ccc(NC(C)=O)c(C)c2)c1F [Example 244, (S)-3-{(R)-1-[3-(4-Acetylamino-3-methyl-phenoxy)-4-chloro-2-fluoro-phenyl]-propylamino}-butyramide.hydrochloride]",470,0.099,–,–
CC(N)c1ccc(F)c(Oc2ccccc2)c1F (centres unmarked) [Example 4],7000,13,–,–
"NC(c1ccc(F)c(Oc2ccccc2)c1F)C1CCNCC1 (centres unmarked) [Example 14, C-(2,4-Difluoro-3-phenoxy-phenyl)-C-piperidin-4-yl-methylamine. dihydrochloride]",1700,2,–,–
"Cc1cc(Oc2c(F)ccc(CNc3ccncc3)c2F)ccc1N [Example 225B, [3-(4-Amino-3-methyl-phenoxy)-2,4-difluoro-benzyl]-pyridin-4-yl-amine. hydrochloride]",730,0.68,–,–
CC[C@@H](N[C@@H](C)CO)c1ccc(F)c(Oc2ccccc2)c1F [Example 57],–,29,10000 to 150000,–
CCC(NCc1cc[nH]n1)c1ccc(F)c(Oc2ccccc2)c1F (centres unmarked) [Example 21],–,> 30,10000 to 150000,–
"CC[C@H](N[C@@H](C)CC(N)=O)c1ccc(Cl)c(Oc2ccccc2)c1F [Example 79, (S)-3-[(S)-1-(4-Chloro-2-fluoro-3-phenoxy-phenyl)-propylamino]-butyramide.hydrochloride]",310,> 10,–,–
CC[C@@H](N[C@@H](C)CC(N)=O)c1ccc(Cl)c(Oc2cccc(C#N)c2)c1F [Example 226],200,2.9,–,–
CC[C@@H](N[C@H](C)CC(N)=O)c1ccc(Cl)c(Oc2ccc(CC#N)cc2)c1F [Example 212],820,–,–,> 10
CC[C@H](Nc1cccc2c1CNCC2)c1ccc(F)c(Oc2ccccc2)c1F [Example 137],450,7.8,–,–
CC[C@@H](N[C@@H](C)CC(N)=O)c1ccc(Cl)c(Oc2ccc([N+](=O)[O-])c(OC)c2)c1F [Example 253],410,0.13,–,–
CC[C@@H](N[C@@H](C)CC(=O)NC(C)(C)CN)c1ccc(Cl)c(Oc2ccccc2)c1F [Example 252],1900,0.88,–,–
CCC(NCc1[nH]cnc1C)c1ccc(F)c(Oc2ccccc2)c1F (centres unmarked) [Example 24],–,18,10000 to 150000,–
"CCC(N)c1ccc(F)c(Oc2ccccc2)c1F (centres unmarked) [Example 3, 1-(2,4-Difluoro-3-phenoxy-phenyl)-propylamine. hydrochloride]",2100,22,–,–
"OCCN[C@H](CC1CCNCC1)c1ccc(F)c(Oc2ccccc2)c1F [Example 87B, 2-[(R)-1-(2,4-Difluoro-3-phenoxy-phenyl)-2-piperidin-4-yl-ethylamino]-ethanol]",–,3.9,10000 to 150000,–
"Fc1ccc(CNc2ccncc2)c(F)c1Oc1ccccc1 [Example 110, (2,4-Difluoro-3-phenoxy-benzyl)-pyridin-4-yl-amine.hydrochloride]",2600,2.3,–,–
"CC[C@H](N[C@H](C)CC(N)=O)c1ccc(Cl)c(Oc2ccccc2)c1F (single isomer, unassigned) [Example 83]",6700,17,–,–

SMILES,"IC50 [1, 3] [nM]","EC50 [2, 4] [µM]","IC50 [1, 5] [nM]","EC50 ([2]; read-out: Activity EC50 (μM) (EC50 luciferase readout), Huh-7 replicon cells, 72 h) [µM]"
"C[C@@H](CC(=O)NCCN)N[C@H](CC1CCOCC1)c1ccc(Cl)c(Oc2ccccc2)c1F [Example 277, (S)—N-(2-Amino-ethyl)-3-[(R)-1-(4-chloro-2-fluoro-3-phenoxy-phenyl)-2-(tetrahydro-pyran-4-yl)-ethylamino]-butyramide.dihydrochloride]",110,1,–,–
"NC(CC1CCNCC1)c1ccc(F)c(Oc2ccccc2)c1F (centres unmarked) [Example 72B, 1-(2,4-Difluoro-3-phenoxy-phenyl)-2-piperidin-4-yl-ethylamine. dihydrochloride]",700,0.26,–,–
"CC[C@@H](N[C@@H](C)CC(=O)NC)c1ccc(Cl)c(Oc2ccccc2)c1F [Example 131A, (S)-3-[(R)-1-(4-Chloro-2-fluoro-3-phenoxy-phenyl)-propylamino]-N-methyl-butyramide.hydrochloride]",1200,> 10,–,–
CC[C@@H](N[C@@H](C)CC(N)=O)c1ccc(Cl)c(Oc2ccc3c(c2)OCC3)c1F [Example 233],110,0.079,–,–
"CC[C@@H](N)c1ccc(Cl)c(Oc2ccc(N)c(C)c2)c1F [Example 112, 4-[3-((R)-1-Amino-propyl)-6-chloro-2-fluoro-phenoxy]-2-methyl-phenylamine.dihydrochloride]",160,> 10,–,–
CC[C@H](N)c1ccc(Cl)c(Oc2ccc(N)nc2)c1F [Example 114],1000,> 10,–,–
N[C@H]1CC[C@H](NCc2ccc(F)c(Oc3ccccc3)c2Cl)CC1 [Example 290],3400,10,–,–
CC[C@@H](N[C@@H](C)CC(=O)N1CCNCC1)c1ccc(Cl)c(Oc2ccccc2)c1F [Example 235],430,0.6,–,–
CCC(NC1CCCNC1)c1ccc(F)c(Oc2ccccc2)c1F (centres unmarked) [Example 17],–,2.8,10000 to 150000,–
CC[C@@H](N[C@@H](C)CC(=O)N[C@H]1CCNC1)c1ccc(Cl)c(Oc2ccccc2)c1F [Example 250],950,1,–,–
CC[C@H](N[C@@H](C)CC(N)=O)c1ccc(F)c(Oc2ccccc2)c1F [Example 70],730,27,–,–
CCC(NC(C)c1c[nH]cn1)c1ccc(F)c(Oc2ccccc2)c1F (centres unmarked) [Example 67],3400,> 30,–,–
CC[C@H](N[C@H](C)CO)c1ccc(F)c(Oc2ccccc2)c1F [Example 65],2100,12,–,–
CCC(NC(C)CO)c1ccc(F)c(Oc2ccccc2)c1F (centres unmarked) [Example 32],880,8,–,–
"CC[C@H](NCCC(=O)NCC#N)c1ccc(F)c(Oc2ccccc2)c1F [Example 91, N-Cyanomethyl-3-[(S)-1-(2,4-difluoro-3-phenoxy-phenyl)-propylamino]-propionamide.hydrochloride]",2400,> 10,–,–
"CC[C@@H](N[C@@H](C)CC(N)=O)c1ccc(Cl)c(Oc2ccc(N)c(Cl)c2)c1F [Example 266C, (S)-3-{(R)-1-[3-(4-Amino-3-chloro-phenoxy)-4-chloro-2-fluoro-phenyl]-propyl-amino}-butyramide.dihydrochloride]",87,0.023,–,–
CC[C@@H](N[C@@H](C)CC(N)=O)c1ccc(Cl)c(Oc2cccc(NS(C)(=O)=O)c2)c1F [Example 196],420,0.27,–,–
"NC(C1=CCNCC1)c1ccc(F)c(Oc2ccccc2)c1F (centres unmarked) [Example 13, C-(2,4-Difluoro-3-phenoxy-phenyl)-C-(1,2,3,6-tetrahydro-pyridin-4-yl)-methylamine. dihydrochloride]",3100,2,–,–
CCC(NC(C)CC(N)=O)c1ccc(F)c(Oc2ccccc2)c1F (centres unmarked) [Example 66],750,> 30,–,–
CCNCCNC(=O)C[C@H](C)N[C@H](CC)c1ccc(Cl)c(Oc2ccccc2)c1F [Example 316],400,> 10,–,–
CCC(NCC1CC1)c1ccc(F)c(Oc2ccccc2)c1F (centres unmarked) [Example 22],3200,6.6,–,–
